Ends that are not written are not given here.
Assays:
[1] = system: methicillin resistant Staphylococcus aureus (MRSA) biofilm; settings: approximate peptide concentration […] (around 3 μg/ml); compared to untreated samples
Summary of the method: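 Peptide was present from inoculation onward, with bacteria seeded at 1/100 from overnight cultures into BM2 biofilm medium or Luria Broth. Crystal violet staining of surface-attached cells (A595) quantified biofilm reduction at 22–46 h. K. pneumoniae was additionally screened in a real-time Bioflux flow device for some peptides.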

[2] = system: human peripheral blood mononuclear cells (MCP-1); assay: SPOT-synthesized derivative screen: production of chemokine MCP-1; assay type: cell-based; settings: Table 12, No LPS, human PBMC, peptide at ~18-24 μM; for MCP1: background subtracted 139 (HH2 derivatives), 170 (1018 derivatives), 242 (1002 and hybrid peptides) pg/ml
Summary of the method: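 MCP-1 was quantified by capture ELISA in cleared culture supernatants of treated human peripheral blood mononuclear cells. Cells came from heparinized volunteer blood via Ficoll gradient and were seeded at 0.75 to 1×10^6 cells/ml (37 °C, 5% CO2).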

[3] = system: LPS-stimulated human peripheral blood mononuclear cells (IL1-β); assay type: cell-based; settings: Table 12, cells stimulated with 10 ng/ml LPS; for IL1β Production: LPS alone 1313 (HH2 derivatives), 1927 (1018 derivatives), 2455 (1002 and hybrid peptides) pg/ml

| Substance | % Biofilm inhibition [1] [%] | Fold increase in MCP1 cf. untreated cells [2] | MCP1 [2] [pg/mL] | Fold change in IL1β relative to no peptide LPS stimulated cells [3] | IL1β Production [3] [pg/mL] |
| --- | --- | --- | --- | --- | --- |
| 1018-L6: single substituted 1018 peptide (VRLIVLVRIWRR-NH2) [Peptide 1018-L6] | 69 | 0.7 | -60 | 0.26 | 340 |
| 1018-K7: single substituted 1018 peptide (VRLIVAKRIWRR-NH2) [Peptide 1018-K7] | 23 | 1.5 | 92 | 0.93 | 1222 |
| HH2-A6: single substituted HH2 peptide (VQLRIAVAVIRA-NH2) | 41 | 1.8 | 137 | 1.06 | 1391 |
| 1018-I7: single substituted 1018 peptide (VRLIVAIRIWRR-NH2) [Peptide 1018-I7] | 63 | 5.2 | 714 | 0.10 | 127 |
| 1018-A9: single substituted 1018 peptide (VRLIVAVRAWRR-NH2) [Peptide 1018-A9] | 49 | 0.5 | -88 | 0.90 | 1176 |
| 1018-G12: single substituted 1018 peptide (VRLIVAVRIWRG-NH2) [Peptide 1018-G12] | 53 | 1.0 | 7 | 0.37 | 490 |
| 1018-A2: single substituted 1018 peptide (VALIVAVRIWRR-NH2) [Peptide 1018-A2] | 64 | 0.6 | -65 | 0.10 | 127 |
| HH2-K9: single substituted HH2 peptide (VQLRIRVAKIRA-NH2) | 52 | 2.1 | 180 | 1.16 | 1520 |
| 1002-I4: single substituted 1002 peptide (VQRILIVWRIRK-NH2) [Peptide 1002-I4] | 62 | 2.1 | 273.6 | 0.09 | 213 |
| 1002-K7: single substituted 1002 peptide (VQRWLIKWRIRK-NH2) [Peptide 1002-K7] | 28 | 0.9 | -36.2 | 0.12 | 302 |
| 1018-I6: single substituted 1018 peptide (VRLIVIVRIWRR-NH2) [Peptide 1018-I6] | 65 | 1.6 | 110 | 0.44 | 582 |
| 1018-Q8: single substituted 1018 peptide (VRLIVAVQIWRR-NH2) [Peptide 1018-Q8] | 51 | 0.4 | -104 | 0.10 | 127 |
| 1018-W8: single substituted 1018 peptide (VRLIVAVWIWRR-NH2) [Peptide 1018-W8] | 43 | 0.8 | -28 | 0.34 | 448 |
| 1002-A4: single substituted 1002 peptide (VQRALIVWRIRK-NH2) [Peptide 1002-A4] | 52 | 0.9 | -36.2 | 0.27 | 655 |
| 1002-L7: single substituted 1002 peptide (VQRWLILWRIRK-NH2) [Peptide 1002-L7] | 57 | 1.8 | 199.1 | 0.05 | 127 |
| 1002-A3: single substituted 1002 peptide (VQAWLIVWRIRK-NH2) [Peptide 1002-A3] | 65 | 4.2 | 787.2 | 0.05 | 127 |
| 1018-R3: single substituted 1018 peptide (VRRIVAVRIWRR-NH2) [Peptide 1018-R3] | 29 | 3.0 | 349 | 1.25 | 1636 |
| 1018-I11: single substituted 1018 peptide (VRLIVAVRIWIR-NH2) [Peptide 1018-I11] | 16 | 1.5 | 83 | 1.35 | 1775 |
| HH2-G12: single substituted HH2 peptide (VQLRIRVAVIRG-NH2) | 69 | 68 | 11442 | 1.09 | 1433 |
| 1002-W10: single substituted 1002 peptide (VQRWLIVWRWRK-NH2) [Peptide 1002-W10] | 71 | 8.8 | 1889.1 | 0.05 | 127 |
| 1002-R5: single substituted 1002 peptide (VQRWRIVWRIRK-NH2) [Peptide 1002-R5] | 62 | 0.9 | -36.2 | 0.14 | 349 |
| 1018-K12: single substituted 1018 peptide (VRLIVAVRIWRK-NH2) [Peptide 1018-K12] | 67 | 4.1 | 531 | 0.10 | 127 |
| 1002-K1: single substituted 1002 peptide (KQRWLIVWRIRK-NH2) [Peptide 1002-K1] | 75 | 26.4 | 6146.9 | 0.05 | 127 |
| HH2-W10: single substituted HH2 peptide (VQLRIRVAVWRA-NH2) | 48 | 15 | 2448 | 1.02 | 1344 |
| HH2-L5: single substituted HH2 peptide (VQLRLRVAVIRA-NH2) | 58 | 1.6 | 97 | 0.88 | 1156 |

From US20190315823A1, “SMALL CATIONIC ANTI-BIOFILM AND IDR PEPTIDES” (priority 2013, published 2019)
